# Assay: Antagonist activity at LPA1 in human lung fibroblasts assessed as inhibition of LPA-induced contraction after 18 hrs by 3D collagen gel contraction assay
row,Compound,IC50
1,Cc1nnn(-c2ccc(-c3ccc(C4(C(=O)O)CC4)cc3)cc2)c1NC(=O)O[C@H](C)c1ccccc1,0.1 µM
2,C[C@@H](OC(=O)Nc1c(-c2ccc(-c3ccc(CC(=O)O)cc3)cc2)nnn1C)c1ccccc1,0.39 µM
3,Cc1noc(-c2ccc(CSCCC(=O)O)cc2)c1NC(=O)OC(C)c1ccccc1Cl (stereo not drawn) [3-(4-(4-((1-(2-chlorophenyl)ethoxy)carbonylamino)-3-methylisoxazol-5-yl)benzylthio)propanoic acid],0.16 µM
4,C[C@@H](OC(=O)Nc1c(-c2ccc(-c3ccc(C4(C(=O)O)CC4)cc3)cc2)nnn1C)c1ccccc1,0.02 µM
5,C[C@@H](OC(=O)Nc1c(-c2ccc(-c3ccc(C4(C(=O)O)CC4)cc3)cc2F)nnn1C)c1ccccc1,0.02 µM
6,C[C@@H](OC(=O)Nc1c(-c2ccc(-c3ccc(C4(C(=O)O)CC4)cc3)cc2)nnn1C)c1cccc(C(F)(F)F)c1,0.34 µM
7,Cc1noc(-c2ccc(-c3ccc(CC(=O)O)cc3)cc2)c1NC(=O)O[C@H](C)c1ccccc1,0.15 µM
8,C[C@@H](OC(=O)Nc1c(-c2ccc(C3CCC(CC(=O)O)CC3)cc2)nnn1C)c1ccccc1 (stereo partly drawn),0.22 µM

# — BindingDB's records for doi:10.1021/jm301022v (F. Hoffmann-La Roche, 2012)
